Reference: US9605004B2, “Chemical compounds” (SYNGENTA LIMITED, priority 2013, dated 2017)

How the values were obtained:
[1] = tested on: a variety of test species; experiment: Post-emergence herbicidal activity (Example 8b, Table 3); type: in vivo; details: application post-emergence, rate 1000 g/ha, evaluated after 13 days, scale 0-5; for Herbicidal damage score, ABUTH: Abutilon theophrasti; for Herbicidal damage score, ALOMY: Alopecurus myosuroides; for Herbicidal damage score, AMARE: Amaranthus retroflexus; for Herbicidal damage score, ECHCG: Echinochloa crus-galli; for Herbicidal damage score, SETFA: Setaria faberi; for Herbicidal damage score, ZEAMX: Zea mays
In short: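 Seeds were sown in standard soil and cultivated for 8 days under controlled glasshouse conditions. Seedlings were then sprayed with an aqueous solution of the formulated compound containing 0.5% Tween 20. Injury was rated after a further 13 days, where 5 indicated total damage.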

[2] = tested on: a variety of test species; experiment: Pre-emergence herbicidal activity (Example 8a, Table 2); type: in vivo; set-up: key: 0 = no damage to plant, 5 = total damage to plant; details: application pre-emergence, rate 1000 g/ha, evaluated after 13 days
In short: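 Visual 0–5 injury score (5 = total damage) taken 13 days after spraying. Treatment applied one day after sowing, before emergence; glasshouse at 24/16 °C day/night, 14 h photoperiod, 65% humidity.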

Row | Compound | Herbicidal damage score, ABUTH [1] | Herbicidal damage score, ALOMY [1] | Herbicidal damage score, AMARE [1] | Herbicidal damage score, ECHCG [1] | Herbicidal damage score, SETFA [1] | Herbicidal damage score, ZEAMX [1] | Pre-emergence herbicidal activity, damage score ABUTH [2] | Pre-emergence herbicidal activity, damage score ALOMY [2] | Pre-emergence herbicidal activity, damage score AMARE [2] | Pre-emergence herbicidal activity, damage score ECHCG [2] | Pre-emergence herbicidal activity, damage score SETFA [2] | Pre-emergence herbicidal activity, damage score ZEAMX [2]
1 | CCn1nc(N2C(=O)C(Cl)=C(C)C2O)c2c1C(C)(C)CC2 (stereo not drawn) [Compound C3] | 5 | 4 | 5 | 5 | 5 | 4 | 5 | 4 | 5 | 5 | 4 | 2
2 | CC1=C(Cl)C(=O)N(c2cc(C(F)(F)F)n(C(C)C)n2)C1O (stereo not drawn) [Compound C4] | 4 | 4 | 4 | 5 | 4 | 2 | 4 | 3 | 4 | 4 | 4 | 3
3 | CC1=C(Cl)C(=O)N(c2cc(C(F)(F)F)n(CC(F)(F)F)n2)C1O (stereo not drawn) [Compound C5] | 4 | 5 | 5 | 5 | 5 | 3 | 2 | 3 | 3 | 4 | 4 | 2
4 | CCn1nc(N2C(=O)C(Cl)=C(C)C2O)cc1C(F)(F)F (stereo not drawn) [Compound C6] | 5 | 5 | 5 | 5 | 4 | 3 | 5 | 4 | 5 | 5 | 4 | 4
5 | CC1=C(Cl)C(=O)N(c2cc(C(F)(F)F)n(C(C)C)n2)C1O (stereo not drawn) [Compound C7] | 4 | 4 | 4 | 5 | 4 | 2 | 4 | 3 | 4 | 4 | 4 | 3
6 | CCn1nc(N2C(=O)C(Cl)=C(C)C2O)cc1C(C)(C)C (stereo not drawn) [Compound C8] | 5 | 5 | 4 | 5 | 5 | 3 | 4 | 4 | 5 | 4 | 5 | 2
7 | CC1=C(Cl)C(=O)N(c2cc(C(F)(F)F)n(CC(F)(F)F)n2)C1O (stereo not drawn) [Compound C9] | 4 | 5 | 5 | 5 | 5 | 3 | 2 | 3 | 3 | 4 | 4 | 2
8 | CC1=C(Cl)C(=O)N(c2cc(C#N)n(CC(F)(F)F)n2)C1O (stereo not drawn) [Compound C11] | 5 | 2 | 1 | 4 | 3 | 2 | 5 | 0 | 2 | 1 | 1 | 1
9 | CC1=C(Cl)C(=O)N(c2cc(C)n(C(F)F)n2)C1O (stereo not drawn) [Compound C12] | 5 | 4 | 5 | 5 | 5 | 3 | 5 | 3 | 5 | 4 | 3 | 2
10 | CC1=C(Cl)C(=O)N(c2cc(C)n(C(F)(F)F)n2)C1O (stereo not drawn) [Compound C13] | 1 | 1 | 1 | 1 | 2 | 1 | 3 | 2 | 2 | 2 | 2 | 0
11 | CC1=C(Cl)C(=O)N(c2nn(C)c(C(C)(C)C)c2C#N)C1O (stereo not drawn) [Compound D1] | 5 | 4 | 5 | 5 | 5 | 3 | 5 | 4 | 5 | 4 | 4 | 2
12 | CC1=C(Cl)C(=O)N(c2nn(C)c(C(C)(C)C)c2C#N)C1O (stereo not drawn) [Compound D2] | 5 | 4 | 5 | 5 | 5 | 3 | 5 | 4 | 5 | 4 | 4 | 2
13 | CC1=C(Cl)C(=O)N(c2nn(C)c(C(C)(C)C)c2Cl)C1O (stereo not drawn) [Compound D3] | 5 | 4 | 4 | 5 | 5 | 4 | 5 | 3 | 5 | 5 | 5 | 4
14 | CC1=C(Cl)C(=O)N(c2nn(C)c(C(C)(C)CCl)c2Cl)C1O (stereo not drawn) [Compound D4] | 5 | 4 | 4 | 5 | 4 | 0 | 5 | 3 | 2 | 4 | 2 | 2
15 | CSc1c(C#N)c(N2C(=O)C(Cl)=C(C)C2O)nn1C (stereo not drawn) [Compound D5] | 0 | 0 | 0 | 0 | 0 | 0 | 0 | 0 | 0 | 0 | 0 | 0
